Experimental data as given in patent US5919824A, “Aminophenol derivatives” (Daiichi Pharmaceutical Co., Ltd., priority 1995, dated 1999).

Tests used:
[1] = biological target: T1, human CCK-B/gastrin receptor (Homo sapiens, UniProt P32239); assay: Inhibition of binding against gastrin receptor (125I-gastrin, CHO cells); conditions: [125I]gastrin 25 pM, CHO cells expressing human CCK-B/gastrin receptor, 37° C.
T1 construct: expressed in transfected cells; host or cells: CHO cells (Chinese hamster ovary)
T1 sequence (P32239 1-447): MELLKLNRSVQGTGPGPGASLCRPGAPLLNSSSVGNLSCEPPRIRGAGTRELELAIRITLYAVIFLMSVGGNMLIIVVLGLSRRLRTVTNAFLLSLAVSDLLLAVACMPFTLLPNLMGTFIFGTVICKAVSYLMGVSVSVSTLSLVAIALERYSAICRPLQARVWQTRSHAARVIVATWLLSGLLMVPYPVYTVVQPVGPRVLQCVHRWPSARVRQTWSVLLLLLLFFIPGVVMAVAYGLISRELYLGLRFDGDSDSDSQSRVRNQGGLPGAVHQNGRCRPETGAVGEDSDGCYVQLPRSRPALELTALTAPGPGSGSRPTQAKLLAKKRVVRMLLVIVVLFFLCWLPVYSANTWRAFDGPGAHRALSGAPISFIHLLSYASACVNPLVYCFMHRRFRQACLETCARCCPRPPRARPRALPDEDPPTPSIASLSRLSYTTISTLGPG
Description: (§1) Separation of human CCK-B/gastrin receptor cDNA clone, separation of human CCK-A receptor cDNA clone, and expression of respective cloned receptors in heterologous cells.
(§2) cDNA of human CCK-B/gastrin receptor cDNA (Pisegna et al.: Biochem. Biophys. Res. Commun., 189, 296-303, 1992) and human CCK-A receptor cDNA (Ulrich et al.: Biochem. Biophys. Res. Commun., 193, 204-211, 1993) have already been isolated. The cDNAs having the reported nucleotide sequences were prepared using routine genetic engineering techniques. The isolated human CCK-B/gastrin receptor cDNA or human CCK-A receptor cDNA was integrated in an expression vector using routine genetic engineering techniques and transfected to CHO cells derived from the Chinese hamster ovary so as to induce expression of respective receptors.
The compounds of the present invention were evaluated by the receptor-binding assay using ^125 I-gastrin and human CCK-B/gastrin receptor expressed in CHO cells. CHO cells expressing the human CCK-B/gastrin receptor were cultured using a Dulbecco's modified Eagle minimum essential medium: nutrient mixture F-12 (hereinafter abbreviated as DMEM/F-12) containing 10% fetal bovine serum at 37° C. in an aerobic phase of 5% CO2 and 95% air. Using a culture dish having a diameter of 16 mm (base area: 2 cm^2), the cells were cultured so as to obtain 5×10^5 cells. The cells were washed with a binding buffer (Earle's balanced salt solution containing 10 mM 4-(2-hydroxyethyl)-1-piperazine ethanesulfonic acid (HEPES) (pH 7.4), 0.1% bovine serum albumin, 2 mM glutamine, and 0.22% sodium hydrogen carbonate) twice, after which a binding buffer (0.5 ml) was added to the dish. To this binding buffer, a test compound (5 μl) dissolved in dimethylsulfoxide (DMSO) was added. The reaction was then allowed to start by adding 0.01 ml (final concentration: 25 pM) of [^125 I]gastrin. When a nonspecific binding amount was obtained, reaction was carried out in the presence of 1 μM of non-labelled gastrin. Reaction was allowed to proceed at 37° C. in an aerobic phase of 5% CO2 and 95% air, after which the cells were washed with phosphate-buffered saline (PBS). [^125 I]gastrin which had not been bound to the cells was removed, and the cells were lysed by adding 1% Triton X-100 (250 μl) to the dish. Radioactivity of this solution was measured by a gamma counter. A specific binding amount was obtained by subtracting a nonspecific binding amount from a total binding amount. Using the thus-obtained specific binding amount, the percentage of the value obtained from a test substance addition group with respect to that of the DMSO addition group was calculated. The percentage was subjected to Hill conversion and then a least squares method, obtaining a 50% inhibitory concentration (IC50).

human CCK-A receptor = biological target: T2, human CCK-A receptor (Homo sapiens, UniProt P32238); assay: Inhibition of binding against CCK-A receptor (125I-CCK8, CHO cells); conditions: for receptor selectivity (IC50 ratio of CCK-A/gastrin): factor; for IC50: [125I]CCK8 25 pM, CHO cells expressing human CCK-A receptor, 37° C.
T2 construct: expressed in transfected cells; host or cells: CHO cells (Chinese hamster ovary)
T2 sequence (P32238 1-428): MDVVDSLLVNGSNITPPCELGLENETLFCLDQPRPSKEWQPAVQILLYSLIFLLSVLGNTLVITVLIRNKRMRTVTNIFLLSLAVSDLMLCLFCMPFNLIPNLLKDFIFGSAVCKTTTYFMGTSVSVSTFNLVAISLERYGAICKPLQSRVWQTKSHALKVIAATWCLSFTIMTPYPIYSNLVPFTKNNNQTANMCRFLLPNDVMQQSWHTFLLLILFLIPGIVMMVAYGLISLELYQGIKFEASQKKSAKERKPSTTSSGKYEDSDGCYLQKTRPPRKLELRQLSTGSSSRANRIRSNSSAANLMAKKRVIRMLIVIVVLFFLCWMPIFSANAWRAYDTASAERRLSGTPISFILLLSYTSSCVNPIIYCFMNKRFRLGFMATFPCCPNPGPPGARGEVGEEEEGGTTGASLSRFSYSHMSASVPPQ
Description: as §1, §2
Test method: The compounds of the present invention were evaluated by the receptor-binding assay using ^125 I-gastrin and human CCK-B/gastrin receptor expressed in CHO cells. CHO cells expressing a human CCK-A receptor were cultured using a DMEM/F-12 containing 10% fetal bovine serum at 37° C. in an aerobic phase of 5% CO2 and 95% air. Using a culture dish having a diameter of 16 mm (base area: 2 cm^2), the cells were cultured so as to obtain 5×10^5 cells. The cells were washed with a binding buffer (Earle's balanced salt solution containing 10 mM HEPES (pH 7.4), 0.1% bovine serum albumin, 2 mM glutamine, and 0.22% sodium hydrogen carbonate) twice, after which a binding buffer (0.5 ml) was added to the dish. To this binding buffer, a test compound (5 μl) dissolved in DMSO was added. The reaction was then allowed to start by adding 0.01 ml (final concentration: 25 pM) of [^125 I]CCK8. When a nonspecific binding amount was obtained, reaction was carried out in the presence of 1 μM of non-labelled CCK-8. Reaction was allowed to proceed at 37° C. in an aerobic phase of 5% CO2 and 95% air, after which the cells were washed with PBS. [^125 I]CCK8 which had not been bound to the cells was removed, and the cells were lysed by adding 1% Triton X-100 (250 μl) to the dish. Radioactivity of this solution was measured by a gamma counter. A specific binding amount was obtained by subtracting a nonspecific binding amount from a total binding amount. Using the thus-obtained specific binding amount, the percentage of the value obtained from a test substance addition group with respect to that of the DMSO addition group was calculated. The percentage was subjected to Hill conversion and then to a least squares method, obtaining a 50% inhibitory concentration (IC50).

Row | Structure (SMILES) | IC50 [1] [nM] | receptor selectivity (IC50 ratio of CCK-A/gastrin) (human CCK-A receptor) | IC50 (human CCK-A receptor) [nM]
1 | Cc1cccc(N(C)C(=O)COc2ccccc2N(CC(=O)N(C)c2ccccc2)C(=O)CNC(=O)Nc2cccc(CC(=O)O)c2)c1 [Example 73, 2-[3-[3-[N-[2-[N-Methyl-N-(3-methylphenyl)carbamoylmethyloxy]phenyl]-N-(N-methyl-N-phenylcarbamoylmethyl)carbamoylmethyl]ureido]phenyl]acetic acid] | 1.9 | – | –
2 | COc1cccc(N(CC(=O)N(C)c2ccccc2)C(=O)CNC(=O)Nc2cccc(C(C)S(=O)(=O)O)c2)c1 (racemic) [Control compound A, potassium (±)-1-[3-[3-[N-(3-methoxyphenyl-N-(N-methyl-N-phenylcarbomoylmethyl)-carbamoylmethyl]ureido]phenylethane sulfonate, reference compound] | 6.5 | 238 | 1480
3 | Cc1ccccc1N(C)C(=O)COc1cccc(N(CC(=O)N(C)c2ccccc2)C(=O)CNC(=O)Nc2cccc(C(C)C(=O)O)c2)c1 (racemic) [Example 79, (±)-2-[3-[3-[N-[3-[N-Methyl-N-(2-methylphenyl)carbamoylmethyloxy]phenyl]-N-(N-methyl-N-phenylcarbamoylmethyl)carbamoylmethyl]ureido]phenyl]propionic acid] | 1.6 | – | –

The next compounds have a lower IC50 [1] than those just listed; values first:

Row | IC50 [1] [nM] | receptor selectivity (IC50 ratio of CCK-A/gastrin) (human CCK-A receptor) | IC50 (human CCK-A receptor) [nM] | Structure (SMILES)
4 | 0.87 | 3654 | 3180 | COc1cccc(N(C)C(=O)COc2ccccc2N(CC(=O)N(C)c2ccccc2)C(=O)CNC(=O)Nc2cccc(CC(=O)O)c2)c1 [Example 87, 2-[3-[3-[N-[2-[N-(3-Methoxyphenyl)-N-methylcarbamoylmethyloxy]phenyl]-N-(N-methyl-N-phenylcarbamoylmethyl)carbamoylmethyl]ureido]phenyl]acetic acid]
5 | 0.5 | 7280 | 3640 | Cc1cc(C)cc(N(C)C(=O)COc2ccccc2N(CC(=O)N(C)c2ccccc2)C(=O)CNC(=O)Nc2cccc(C(C)C(=O)O)c2)c1 (racemic) [Example 92, Sodium (±)-2-[3-[3-[N-[2-[N-methyl-N-(3,5-dimethylphenyl)carbamoylmethyloxy]phenyl]-N-(N-methyl-N-phenylcarbamoylmethyl)carbamoylmethyl]ureido]phenyl]sodium propionate]
6 | 1 | – | – | COc1cccc(N(C)C(=O)COc2ccccc2N(CC(=O)N(C)c2ccccc2)C(=O)CNC(=O)Nc2cccc(C(C)C(=O)O)c2)c1 (racemic) [Example 86, (±)-2-[3-[3-[N-[2-[N-(3-Methoxyphenyl)-N-methylcarbamoylmethyloxy]phenyl]-N-(N-methyl-N-phenylcarbamoylmethyl)carbamoylmethyl]ureido]phenyl]propionic acid]
